Results from PMC10544575, “Inhibitory mechanism of vortioxetine on CYP450 enzymes in human and rat liver microsomes” (Frontiers in Pharmacology, 2023).
Read-outs that look alike come from different tables or passages of the source.

Key:
CYP2B = assay: IC50-shift experiment, CYP2B in RLMs; format: in vitro ADME; conditions: rat, rat liver microsomes, probe bupropion; for IC50 at 30 min: bupropion 20 μM
CYP2C-2 [1] = assay: IC50-shift experiment, CYP2C-2 in RLMs; format: in vitro ADME, rat; conditions: for IC50 at 30 min: losartan 15 μM
CYP2D = assay: IC50-shift experiment, CYP2D in RLMs; format: in vitro ADME; conditions: rat, rat liver microsomes, probe dextromethorphan; for IC50 at 30 min: dextromethorphan 20 μM
Procedure: (§1) The components of the incubation system were as follows: 0.20 mg/mL HLMs or 0.20 mg/mL RLMs, 0.1 M Tris-HCl, vortioxetine, and the probe substrates of each enzyme. In the study of Km’s (Michaelis–Menten constant) experiment, midazolam (1, 2, 5, 10, 20, 50 and 100 μM in HLMs and RLMs) corresponded to CYP3A4/3A; bupropion (10, 20, 50, 100, 200, 500, 1,000 and 2000 μM in HLMs; 1, 2, 5, 10, 20, 50, 100 and 200 μM in RLMs) corresponded to CYP2B6/2B; amodiaquine (5, 10, 20, 50, 100 and 200 μM in HLMs; 10, 20, 50, 100, 200, 500 μM in RLMs) corresponded to CYP2C8/CYP2C-1; losartan (1, 2, 5, 10, 20, 50, 100, 200 μM in HLMs; 10, 20, 50, 100, 200, 500 and 1,000 μM in RLMs) corresponded to CYP2C9/CYP2C-2; mephenytoin (20, 50, 100, 200, 500 and 1,000 μM in HLMs; 5, 10, 20, 50, 100, 200, 500 and 1,000 μM in RLMs) corresponded to CYP2C19/CYP2C-3; and dextromethorphan (1, 2, 5, 10, 20, 50 and 100 μM in HLMs and RLMs) corresponded to CYP2D6/CYP2D. After 5.0 min of preincubation in the shaking water bath, the reaction was started with the addition of 1.0 mM NADPH. The incubated temperature at 37°C for 30 min. After the incubation, the enzyme reaction was stopped by cooling at −80°C, and 200 μL of acetonitrile and 20 μL of internal standard diazepam (200 ng/mL) were added for protein precipitation. […]
IC50-shift was used to investigate whether the drug produced time-dependent inhibition (TDI) of the enzyme. […] During the experiment, the individual substrates midazolam (4 μM), bupropion (40 μM), amodiaquine (3 μM), losartan (8 μM), mephenytoin (90 μM), and dextromethorphan (10 μM) were determined with vortioxetine IC50-shift in HLMs. […]
(§2) All experiments results were detected by UPLC-MS/MS, which equipped with a Waters Acquity UPLC system (Milford, MA, United States) and a Waters Xevo TQ-S triple quadrupole tandem mass spectrometer with an electrospray ionization source (Milford, MA, United States). […]
(§3) IC50 values and enzyme kinetic parameters were calculated by Graphpad Prism 6.0 (GraphPad software Inc., CA, United States). […] Data for each experiment were expressed as mean ± SD (n = 3).

CYP2C-2 [2] = assay: Reversible inhibition kinetics (Lineweaver-Burk), CYP2C-2 in RLMs; format: in vitro ADME, rat
Procedure: as §1, with “CYP2D6/CYP2D.” for “CYP2D6/CYP2D. After 5.0 min of preincubation in the shaking water bath, the reaction was started with the addition of 1.0 mM NADPH. The incubated temperature at 37°C for 30 min. After the incubation, the enzyme reaction was stopped by cooling at −80°C, and 200 μL of acetonitrile and 20 μL of internal standard diazepam (200 ng/mL) were added for protein precipitation.”
as §2, §3

[3] = set-up: method as in earlier work; conditions: patients with severe liver impairment; single oral dose of 10 mg; ref (2022); cited from earlier work
CYP2C19 = CYP2C19 (Homo sapiens, UniProt P33261); assay: IC50 of vortioxetine on CYP2C19 (mephenytoin) in HLMs; format: in vitro ADME; set-up: 0.20 mg/mL HLMs; from tissue; host or cells: human liver microsomes
CYP2C19, sequence (P33261 whole entry): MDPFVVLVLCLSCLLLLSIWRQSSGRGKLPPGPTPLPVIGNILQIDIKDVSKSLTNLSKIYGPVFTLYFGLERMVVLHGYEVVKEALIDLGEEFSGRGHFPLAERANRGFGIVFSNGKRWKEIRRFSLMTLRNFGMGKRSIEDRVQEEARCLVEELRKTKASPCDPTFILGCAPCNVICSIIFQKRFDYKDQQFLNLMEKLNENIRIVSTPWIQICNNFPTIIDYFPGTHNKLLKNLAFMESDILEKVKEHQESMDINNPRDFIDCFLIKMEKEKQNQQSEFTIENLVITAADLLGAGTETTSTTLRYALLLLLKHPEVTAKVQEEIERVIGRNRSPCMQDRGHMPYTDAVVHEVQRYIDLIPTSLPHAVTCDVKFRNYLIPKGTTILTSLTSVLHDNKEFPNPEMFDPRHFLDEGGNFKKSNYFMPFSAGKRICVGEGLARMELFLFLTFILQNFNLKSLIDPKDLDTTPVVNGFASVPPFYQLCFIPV
Procedure: as §1, with “CYP2D6/CYP2D.” for “CYP2D6/CYP2D. After 5.0 min of preincubation in the shaking water bath, the reaction was started with the addition of 1.0 mM NADPH. The incubated temperature at 37°C for 30 min. After the incubation, the enzyme reaction was stopped by cooling at −80°C, and 200 μL of acetonitrile and 20 μL of internal standard diazepam (200 ng/mL) were added for protein precipitation.”
as §2, §3

[4] = 30 min preincubation with 1.0 mM NADPH
[5] = 30 min preincubation without NADPH
[6] = ratio IC50 (−) NADPH to IC50 (+) NADPH, read-out: IC50 fold shift

Compound: Cc1ccc(Sc2ccccc2N2CCNCC2)c(C)c1 [vortioxetine]
- IC50 at 30 min (CYP2B; [4]): 5.3 µM
- IC50 at 30 min (CYP2B; [5]): 10.1 µM
- IC50 shift at 30 min (CYP2B; [6]): 1.91
- activity of CYP2C-2 with the NADPH (CYP2C-2 [1]; preincubation with NADPH vs without): significantly increased
- IC50 at 30 min (CYP2C-2 [1]; rat, rat liver microsomes, probe losartan, CYP2C-2, 30 min preincubation with 1.0 mM NADPH): 37.5 µM
- IC50 at 30 min (CYP2C-2 [1]; rat, rat liver microsomes, probe losartan, CYP2C-2, 30 min preincubation without NADPH): 8.97 µM
- IC50 shift at 30 min (CYP2C-2 [1]; rat, rat liver microsomes, probe losartan, CYP2C-2, ratio IC50 (−) NADPH to IC50 (+) NADPH, read-out: IC50 fold shift): 0.24
- IC50 at 30 min (CYP2D; [4]): 7.38 µM
- IC50 at 30 min (CYP2D; [5]): 3.35 µM
- IC50 shift at 30 min (CYP2D; [6]): 0.45
- Inhibition type (CYP2C-2 [2]; losartan, Lineweaver-Burk plot): competitive inhibition
- Ki at 30 min (CYP2C-2 [2]; rat, rat liver microsomes, probe losartan): 0.12 µM
- AUC(0-t) higher than healthy subjects [3]: 10%
- Cmax lower than healthy subjects [3]: 24%
- IC50 (CYP2C19; HLMs 0.20 mg/mL, mephenytoin at Km, 37°C, 30 min, read-out: IC50): 2.4 µM
- IC50 (CYP2C19; inhibitory effect (strength judged by IC50), HLMs): 1 to 10 µM
